Measured values from article PMC5521788, “In Vitro comparison of ^213Bi- and ^177Lu-radiation for peptide receptor radionuclide therapy” (PLoS ONE, 2017).

How the values were obtained:
BON cells = assay: Clonogenic assay, BON cells; format: cell-based, human
Description: (§1) Before irradiation of the cells, 500 cells were seeded in 6-well plates (pre-coated with poly-l-lysine) 24 h before the experiment. […] After irradiation, internalization medium containing radioligand was removed. […] Every 2 or 3 d, medium was replaced by fresh culture medium. […] The 6-well plates containing colonies were scanned with a HP-scanner at 200 dpi. The colonies in each well were counted by a clonocounter. The survival was plotted as a function of absorbed dose and fitted to linear-quadratic (LQ) or linear-exponential curves. The cell absorbed dose during the incubation period was calculated with a dosimetry model of the 6-well plate, as described by Verwijnen et al.. The 3.5 cm diameter well cavity was modeled in the Monte Carlo radiation transport code Monte Carlo N-Particle […] (version 2.5.0, Los Alamos National Laboratory, USA) with homogeneously distributed radioactivity over the 2 mL volume aqueous liquid within the cavity.

CA20948 cells = assay: Clonogenic assay, CA20948 cells; format: cell-based, rat
Description: as §1, with “cavity. […] The division the layers of the well were as followed; 18 layers of 100 μm and 8 layers of 25 μm at the bottom of the well. […] D (25μm←fluid)=Ãfluid(1)×S(25μm←fluid)=∫T0TAfluide^-λtdt×S(25μm←fluid) […] The dosimetry for the specific uptake of radioactivity in the cells was calculated with the multicellular dosimetry code MIRD cell. […] Initially 500 cells were plated over the 9.62 cm^2 surface of the well. For evenly distributed cells over the surface the mean inter-cell distance would be 770 μm. In reality the cells were more clustered to the center of the well. […] The number of disintegrations within each cell (or Time-Integrated Activity per cell ã) was calculated by integration of the decay function of ^177Lu and ^213Bi and its progeny over the 12 d irradiation time multiplied by the ƒint and ƒmem per cell. This assumes that ƒmem will remain bound to the cells and ƒint remains trapped in the cell over a period of 12 d.” for “cavity.”

O=C([O-])CN(CCN(CC(=O)[O-])CC(=O)[O-])CCN(CC(=O)[O-])CC(=O)[O-].[213Bi+3] [^213Bi-DTPA]
RBE at D10 compared to ^137Cs irradiation (BON cells): 1.8
LQ model parameter α (BON cells; 1 h exposure, colonies after 12 d, n = 3): 0.87±0.1 /Gy
D10 (absorbed dose of 10% survival) (BON cells; 1 h incubation, 12 d colony growth): 2.5 Gy
factor advantage in cell killing compared to ^177Lu-DOTATATE (CA20948 cells; 10% survival, CA20948 (abstract)): 6
RBE at D10 compared to ^137Cs irradiation (CA20948 cells; CA20948): 2.0
LQ model parameter α (CA20948 cells; CA20948, 1 h exposure, colonies after 12 d, n = 3): 0.74±0.08 /Gy
D10 (absorbed dose of 10% survival) (CA20948 cells; CA20948, 1 h incubation, 12 d colony growth): 2.6 Gy
RBE at 10% cell survival (CA20948 cells; in both low (BON) and high (CA20948) SSTR2 expressing cell lines): 1.5–2.0
